≈ marks a conversion by molar mass, not a printed value.
Experiments:
Escherichia coli = experiment: In vitro antibacterial activity against Escherichia coli NIHJ JC-2.; type: functional
Staphylococcus aureus [1] = experiment: In vitro antibacterial activity against Staphylococcus aureus 209P JC-1.; type: functional
Staphylococcus aureus [2] = experiment: In vitro antibacterial activity against Staphylococcus aureus 3004 Methicillin-resistant Staphylococcus aureus.; type: functional
[3] = Tested for urinary recovery in mice after subcutaneous administration of 20 mg/Kg; type: ADME, organism-based; conditions: mouse, urine, sc, read-out: Recovery
[4] = target: T1, Dipeptidase 1 (Sus scrofa) (UniProt P22412); experiment: Tested for stability of compound to swine renal DHP-1 relative to imipenem (IMP); type: functional
T1 sequence (whole entry): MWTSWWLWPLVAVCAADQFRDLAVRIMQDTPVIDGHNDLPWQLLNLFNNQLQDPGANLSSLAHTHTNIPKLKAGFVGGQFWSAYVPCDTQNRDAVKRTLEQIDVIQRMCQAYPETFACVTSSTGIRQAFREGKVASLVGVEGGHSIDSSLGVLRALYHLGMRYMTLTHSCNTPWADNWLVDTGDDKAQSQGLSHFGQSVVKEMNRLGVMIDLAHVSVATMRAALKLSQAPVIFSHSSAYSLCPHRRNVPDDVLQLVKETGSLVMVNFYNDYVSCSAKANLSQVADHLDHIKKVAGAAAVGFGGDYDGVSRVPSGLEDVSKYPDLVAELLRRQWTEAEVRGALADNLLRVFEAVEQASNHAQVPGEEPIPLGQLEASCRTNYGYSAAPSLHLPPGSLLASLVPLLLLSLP

Pseudomonas aeruginosa [5] = experiment: In vitro antibacterial activity against Ps. auruginosa 26.; type: functional
Proteus vulgaris = experiment: In vitro antibacterial activity against Proteus vulgaris IAM 1025.; type: functional
Pseudomonas aeruginosa [6] = experiment: Tested in vitro for antibacterial activity against Ps. aeruginosa 26; type: functional
[7] = target: T2, Dipeptidase 1 (Homo sapiens) (UniProt P16444); experiment: Compound stability against human renal DHP-1 relative to imipenem (IMP); type: functional
T2 sequence (whole entry): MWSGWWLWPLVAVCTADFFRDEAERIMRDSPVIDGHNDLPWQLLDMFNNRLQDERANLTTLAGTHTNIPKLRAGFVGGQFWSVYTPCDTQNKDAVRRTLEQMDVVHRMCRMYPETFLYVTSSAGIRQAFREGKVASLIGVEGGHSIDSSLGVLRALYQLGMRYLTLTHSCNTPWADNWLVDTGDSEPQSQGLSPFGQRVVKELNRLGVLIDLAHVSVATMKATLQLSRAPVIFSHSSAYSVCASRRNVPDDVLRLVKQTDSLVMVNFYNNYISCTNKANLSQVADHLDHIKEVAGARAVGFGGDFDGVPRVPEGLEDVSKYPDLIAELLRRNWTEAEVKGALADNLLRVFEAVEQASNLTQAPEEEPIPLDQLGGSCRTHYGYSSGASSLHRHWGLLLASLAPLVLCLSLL

[8] = target: T2, Dipeptidase 1 (Homo sapiens); experiment: Tested for stability of compound to human renal DHP-1 relative to imipenem (IMP); type: functional

| SMILES | MIC (Escherichia coli) [µg/mL] | MIC (Staphylococcus aureus [1]) [µg/mL] | MIC (Staphylococcus aureus [2]) [µg/mL] | dose excreted [3] [%] | Stability [4] [%] | MIC (Pseudomonas aeruginosa [5]) [µg/mL] | MIC (Proteus vulgaris) [µg/mL] | MIC (Pseudomonas aeruginosa [6]) [µg/mL] | Stability [7] [%] | Stability [8] [%] |
| --- | --- | --- | --- | --- | --- | --- | --- | --- | --- | --- |
| C[C@@H](O)[C@H]1C(=O)N2C(C(=O)O)=C(C3CNC3)C[C@H]12 | 1.56 (≈ 6.18 µM) | 0.05 (≈ 0.198 µM) | 100 (≈ 396 µM) | 45 | 2 | 1.56 (≈ 6.18 µM) | 3.13 (≈ 12.4 µM) |  |  |  |
| C[C@@H](O)[C@H]1C(=O)N2C(C(=O)O)=C(C3CCNCC3)C[C@H]12 | 1.56 (≈ 5.56 µM) | 0.05 (≈ 0.178 µM) | > 100 | 43 | 18 |  | 12.5 (≈ 44.6 µM) | 0.78 (≈ 2.78 µM) |  |  |
| C[C@@H](O)[C@H]1C(=O)N2C(C(=O)O)=C([C@@H]3CCN(C(=N)CNC(N)=O)C3)C[C@H]12 | 0.2 (≈ 0.547 µM) | < 0.025 | 25 (≈ 68.4 µM) | 47 |  | 0.39 (≈ 1.07 µM) | 3.13 (≈ 8.57 µM) |  | 20 |  |
| C[C@@H](O)[C@H]1C(=O)N2C(C(=O)O)=C([C@@H]3CCN(C(=N)COC(N)=O)C3)C[C@H]12 | 0.1 (≈ 0.273 µM) | < 0.025 | 6.25 (≈ 17.1 µM) | 42 |  | 0.78 (≈ 2.13 µM) | 1.56 (≈ 4.26 µM) |  | 13 |  |
| C[C@@H](O)[C@H]1C(=O)N2C(C(=O)O)=C([C@@H]3CCN(C4=NCCC4)C3)C[C@H]12 | 0.2 (≈ 0.6 µM) | < 0.025 | 12.5 (≈ 37.5 µM) | 50 | 8.4 | 0.39 (≈ 1.17 µM) | 1.56 (≈ 4.68 µM) |  | 28 |  |
| C[C@@H](O)[C@H]1C(=O)N2C(C(=O)O)=C(SCCNC=N)C[C@H]12 [IMIPENEM ANHYDROUS] | 0.78 (≈ 2.61 µM) | < 0.025 | 100 (≈ 334 µM) |  | 100 | 0.78 (≈ 2.61 µM) | 3.1 (≈ 10.4 µM) |  | 100 |  |
| C[C@@H](O)[C@H]1C(=O)N2C(C(=O)O)=C(C3CCCNC3)C[C@H]12 (stereo partly drawn) | 0.39 (≈ 1.39 µM) | < 0.025 | 50 (≈ 178 µM) | 59 |  | 1.56 (≈ 5.56 µM) | 25 (≈ 89.2 µM) |  |  | 4.4 |
| C[C@@H](O)[C@H]1C(=O)N2C(C(=O)O)=C(SCCN=CN)C[C@H]12 [IMIPENEM ANHYDROUS] |  |  |  | 29 |  |  |  |  |  |  |
| C[C@@H](O)[C@H]1C(=O)N2C(C(=O)O)=C([C@@H]3CCNC3)C[C@H]12 | 0.2 (≈ 0.751 µM) | < 0.025 | 50 (≈ 188 µM) | 37 | 8.8 | 0.39 (≈ 1.46 µM) | 6.25 (≈ 23.5 µM) |  | 48 |  |
| CC(=N)N1CC[C@H](SC2=C(C(=O)O)N3C(=O)[C@H]([C@@H](C)O)[C@H]3C2)C1 [PANIPENEM] | 0.2 (≈ 0.589 µM) | 0.025 (≈ 0.0737 µM) | 50 (≈ 147 µM) | 25 |  | 0.39 (≈ 1.15 µM) | 1.56 (≈ 4.6 µM) |  |  |  |
| C[C@@H](O)[C@H]1C(=O)N2C(C(=O)O)=C(C3CCNC3)C[C@H]12 (stereo partly drawn) | 0.39 (≈ 1.46 µM) | < 0.025 | 100 (≈ 376 µM) | 42 | 13 | 0.78 (≈ 2.93 µM) | 12.5 (≈ 46.9 µM) |  | 58 |  |
| C[C@@H](O)[C@H]1C(=O)N2C(C(=O)O)=C([C@@H]3CCN(C(=N)CO)C3)C[C@H]12 | 0.39 (≈ 1.21 µM) | < 0.025 | 25 (≈ 77.3 µM) | 52 | 13 | 0.78 (≈ 2.41 µM) | 3.13 (≈ 9.68 µM) |  |  |  |
| C[C@@H](O)[C@H]1C(=O)N2C(C(=O)O)=C([C@@H]3CCN(C(=N)CC(N)=O)C3)C[C@H]12 | 0.39 (≈ 1.11 µM) | < 0.025 | 6.25 (≈ 17.8 µM) | 43 | 13 | 0.39 (≈ 1.11 µM) | 1.56 (≈ 4.45 µM) |  | 14 |  |
| C[C@@H](O)[C@H]1C(=O)N2C(C(=O)O)=C([C@H]3CCNC3)C[C@H]12 | 0.39 (≈ 1.46 µM) | < 0.025 | 100 (≈ 376 µM) | 46 | 16 | 0.78 (≈ 2.93 µM) | 6.25 (≈ 23.5 µM) |  | 78 |  |
| C[C@@H](O)[C@H]1C(=O)N2C(C(=O)O)=C([C@@H]3CCN(C=N)C3)C[C@H]12 | 0.1 (≈ 0.341 µM) | < 0.025 | 25 (≈ 85.2 µM) | 41 | 15 | 0.2 (≈ 0.682 µM) | 1.56 (≈ 5.32 µM) |  | 39 |  |
| CC(=N)N1CC[C@@H](C2=C(C(=O)O)N3C(=O)[C@H]([C@@H](C)O)[C@H]3C2)C1 | 0.2 (≈ 0.651 µM) | < 0.025 | 6.25 (≈ 20.3 µM) | 44 | 8.4 | 0.78 (≈ 2.54 µM) | 1.56 (≈ 5.08 µM) |  | 34 |  |
| C/C(=C\[C@@]1(C)CCCN1)C1=C(C(=O)O)N2C(=O)[C@H]([C@@H](C)O)[C@H]2C1 | 0.39 (≈ 1.22 µM) | < 0.025 | 50 (≈ 156 µM) | 61 | 4.3 | 3.13 (≈ 9.77 µM) | 1.56 (≈ 4.87 µM) |  | 45 |  |
| C/N=C/N1CC[C@@H](C2=C(C(=O)O)N3C(=O)[C@H]([C@@H](C)O)[C@H]3C2)C1 | 0.2 (≈ 0.651 µM) | < 0.025 | 3.13 (≈ 10.2 µM) | 48 | 7.8 | 0.39 (≈ 1.27 µM) | 0.78 (≈ 2.54 µM) |  | 91 |  |

— ChEMBL document CHEMBL1135036, “Synthesis and antibacterial evaluation of novel 2-[N-Imidoylpyrrolidinyl] carbapenems” (Bioorg Med Chem Lett, 2002)
